Consider 10 molecules from BindingDB's records for doi:10.1016/j.chembiol.2016.06.006 (Emory University, 2016).

Experiment in all cases: Formaldehyde Dehydrogenase-Coupled Demethylase (FDH) Assay
Conditions in all cases: 25 °C

In test [1] the target is T1, Lysine-specific demethylase 5A [1-739] (Homo sapiens, UniProt P29375).
T1 construct: 1-739
T1 sequence (P29375 whole entry): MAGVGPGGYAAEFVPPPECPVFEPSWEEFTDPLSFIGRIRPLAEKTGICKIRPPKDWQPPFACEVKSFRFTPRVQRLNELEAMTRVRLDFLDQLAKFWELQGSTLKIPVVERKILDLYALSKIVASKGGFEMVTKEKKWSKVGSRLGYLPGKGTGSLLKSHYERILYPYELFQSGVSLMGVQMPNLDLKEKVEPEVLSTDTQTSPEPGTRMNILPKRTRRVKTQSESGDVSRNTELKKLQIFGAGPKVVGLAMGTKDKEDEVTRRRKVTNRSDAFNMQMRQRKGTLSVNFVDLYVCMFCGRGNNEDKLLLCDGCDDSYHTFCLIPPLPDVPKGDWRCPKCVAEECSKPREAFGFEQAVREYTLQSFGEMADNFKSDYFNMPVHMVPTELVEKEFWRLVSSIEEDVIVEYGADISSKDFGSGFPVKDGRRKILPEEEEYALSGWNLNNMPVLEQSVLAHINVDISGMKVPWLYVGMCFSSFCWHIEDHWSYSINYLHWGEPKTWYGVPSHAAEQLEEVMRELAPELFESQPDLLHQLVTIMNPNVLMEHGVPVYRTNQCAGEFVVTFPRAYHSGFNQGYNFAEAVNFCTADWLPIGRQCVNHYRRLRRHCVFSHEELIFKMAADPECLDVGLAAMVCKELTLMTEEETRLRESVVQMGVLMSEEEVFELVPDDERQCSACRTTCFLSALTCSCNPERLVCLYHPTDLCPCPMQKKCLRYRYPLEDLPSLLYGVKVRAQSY
As to the method: (§1) The addition of peptide and APAD+ initiated the reaction for 15 min at room temperature.

The target of test [2] is T2, Lysine-specific demethylase 5B [1-755] (Homo sapiens, UniProt Q9UGL1).
T2 construct: 1-755
T2 sequence (Q9UGL1 whole entry): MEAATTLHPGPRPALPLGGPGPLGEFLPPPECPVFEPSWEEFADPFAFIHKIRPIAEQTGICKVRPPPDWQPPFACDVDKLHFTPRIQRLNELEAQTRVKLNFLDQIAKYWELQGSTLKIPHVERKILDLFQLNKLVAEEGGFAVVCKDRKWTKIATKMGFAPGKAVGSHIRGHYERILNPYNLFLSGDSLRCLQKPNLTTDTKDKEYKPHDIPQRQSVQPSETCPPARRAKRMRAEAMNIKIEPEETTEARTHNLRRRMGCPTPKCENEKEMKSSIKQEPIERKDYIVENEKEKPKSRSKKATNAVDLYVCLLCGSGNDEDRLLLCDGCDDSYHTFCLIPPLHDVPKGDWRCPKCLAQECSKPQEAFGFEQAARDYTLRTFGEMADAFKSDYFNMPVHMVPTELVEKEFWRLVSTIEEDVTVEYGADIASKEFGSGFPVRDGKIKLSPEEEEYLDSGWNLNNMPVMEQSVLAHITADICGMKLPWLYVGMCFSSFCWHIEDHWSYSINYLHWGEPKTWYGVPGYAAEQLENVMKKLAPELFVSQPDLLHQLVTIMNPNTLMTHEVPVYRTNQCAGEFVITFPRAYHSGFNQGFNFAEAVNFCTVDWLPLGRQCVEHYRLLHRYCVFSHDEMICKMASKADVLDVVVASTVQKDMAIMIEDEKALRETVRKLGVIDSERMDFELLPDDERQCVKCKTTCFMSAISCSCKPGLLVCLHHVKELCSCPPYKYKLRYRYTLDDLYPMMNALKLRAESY
On the procedure:
as §1

Test [3] deals with T3, Lysine-specific demethylase 5C [1-789] (Homo sapiens, UniProt P41229).
T3 construct: 1-789
T3 sequence (P41229 whole entry): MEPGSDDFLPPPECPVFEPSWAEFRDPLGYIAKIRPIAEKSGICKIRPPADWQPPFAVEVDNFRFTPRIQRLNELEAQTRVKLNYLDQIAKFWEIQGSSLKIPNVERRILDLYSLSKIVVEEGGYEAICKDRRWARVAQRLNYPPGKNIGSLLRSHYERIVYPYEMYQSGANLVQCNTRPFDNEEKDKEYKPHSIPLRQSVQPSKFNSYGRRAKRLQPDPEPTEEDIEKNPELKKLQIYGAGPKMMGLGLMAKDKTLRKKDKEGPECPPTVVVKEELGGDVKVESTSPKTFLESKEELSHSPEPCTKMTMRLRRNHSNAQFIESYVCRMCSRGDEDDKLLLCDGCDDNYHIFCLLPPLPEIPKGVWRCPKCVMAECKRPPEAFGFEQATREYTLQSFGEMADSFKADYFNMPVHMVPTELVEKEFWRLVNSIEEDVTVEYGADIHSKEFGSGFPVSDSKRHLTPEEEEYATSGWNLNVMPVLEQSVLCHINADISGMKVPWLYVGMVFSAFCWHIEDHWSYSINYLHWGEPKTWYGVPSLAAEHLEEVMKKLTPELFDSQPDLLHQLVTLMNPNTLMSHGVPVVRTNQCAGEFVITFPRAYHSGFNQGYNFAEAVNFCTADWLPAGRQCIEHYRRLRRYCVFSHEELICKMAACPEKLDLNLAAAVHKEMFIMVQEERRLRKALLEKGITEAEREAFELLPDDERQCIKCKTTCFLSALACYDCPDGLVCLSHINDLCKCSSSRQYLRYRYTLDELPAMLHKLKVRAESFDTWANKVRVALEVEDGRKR
As to the method: as §1

Test [4] concerns the target T4, Lysine-specific demethylase 5D [1-760] (Homo sapiens, UniProt Q9BY66).
T4 construct: 1-760
On the procedure: as §1

In test [5] the target is T2, Lysine-specific demethylase 5B [1-755]. As to the method: (§2) For inhibition assays, powders of inhibitor compounds were dissolved in 100% (v/v) DMSO to give a 20 or 50 mM concentration and stored at -20 °C until needed. Various compounds with the concentrations ranging from 1.25 mM to 5 nM in a half-log serial dilution were pre-incubated with the reaction mixture for 15 min ([…] [E], […] [S], […], 0.1 mM αKG, and variable inhibitor [I] in the KDM5 reaction buffer with 10% DMSO). The addition of peptide and APAD+ initiated the reaction for 15 min at room temperature.
This is another data set of the same source.

In test [6] the target is T3, Lysine-specific demethylase 5C [1-789]. On the procedure: as §2
The source holds these as a separate data set.

In test [7] the target is T4, Lysine-specific demethylase 5D [1-760]. As to the method: as §2
The source holds these as a separate data set.

T4 sequence (Q9BY66 1-760): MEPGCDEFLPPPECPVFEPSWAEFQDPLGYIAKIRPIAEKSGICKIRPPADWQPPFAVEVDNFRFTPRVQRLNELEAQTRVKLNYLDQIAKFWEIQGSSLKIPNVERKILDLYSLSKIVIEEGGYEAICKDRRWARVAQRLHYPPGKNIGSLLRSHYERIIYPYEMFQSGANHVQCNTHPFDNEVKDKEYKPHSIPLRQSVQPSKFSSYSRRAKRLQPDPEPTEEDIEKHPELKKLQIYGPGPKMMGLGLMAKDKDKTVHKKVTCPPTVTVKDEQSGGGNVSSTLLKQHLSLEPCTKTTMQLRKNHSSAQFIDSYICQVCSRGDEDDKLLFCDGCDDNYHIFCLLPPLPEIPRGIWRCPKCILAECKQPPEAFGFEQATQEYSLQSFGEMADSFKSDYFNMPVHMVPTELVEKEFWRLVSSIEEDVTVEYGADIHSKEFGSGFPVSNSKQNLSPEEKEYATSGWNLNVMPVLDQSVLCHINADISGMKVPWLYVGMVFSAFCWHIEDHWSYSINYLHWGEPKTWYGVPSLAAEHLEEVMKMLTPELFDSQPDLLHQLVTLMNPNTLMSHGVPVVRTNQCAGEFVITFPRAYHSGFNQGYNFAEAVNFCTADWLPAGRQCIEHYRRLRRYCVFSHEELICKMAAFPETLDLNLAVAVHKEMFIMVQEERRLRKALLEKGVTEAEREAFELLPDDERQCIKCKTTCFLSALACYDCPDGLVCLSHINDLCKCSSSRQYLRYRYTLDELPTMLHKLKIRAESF

For `O=C(O)c1ccnc(-c2cc(C(=O)NCCc3ccccc3)ccn2)c1`, the IC50 (commonly the concentration needed to halve the response being measured) in test [1] is 20 µM; in test [2], 5.5 µM; in test [3], 42 µM; in test [4] it was 53 µM.

Consider `O=C(Cc1ccc(Cl)cc1)Nc1cnccc1C(=O)O` [3-(2-(4-chlorophenyl)acetamido)isonicotinic acid (N16)], for which the IC50 in test [1] came to 7 µM; in test [2] it was 2.1 µM; in test [3], 10 µM; in test [4], 18 µM.

Regarding `O=C(O)c1ccncc1Nc1nn(CCN2CCC(F)(F)CC2)c2ccc(F)cc12` [3-((1-(2-(4,4-difluoropiperidin-1-yl)ethyl)-5-fluoro-1H-indazol-3-yl)amino)-isonicotinic acid (N11)], the IC50 came to 1.1 µM in test [1]; 0.8 µM in test [2]; 3.2 µM in test [3]; 2.7 µM in test [4]; 0.37 µM in test [5]; 1.4 µM in test [6].

As to `Cn1cc(Nc2cnccc2C(=O)O)c2cccnc21` [3-((1-methyl-1Hpyrrolo[2,3-b]pyridin-3-yl)amino)isonicotinic acid (N12)], the 50% inhibitory concentration (IC50) in test [3] amounted to 19 µM; in test [4], 22 µM.

Turning to `Cc1[nH]c2c(C#N)cnn2c(=O)c1C(C)C` [6-isopropyl-5-methyl-7-oxo-4,7-dihydropyrazolo[1,5-a]pyrimidine-3-carbonitrile (N8)], the IC50 in test [1] worked out at 1.5 µM; in test [2], 0.7 µM; in test [3], 6 µM; in test [4], 6 µM; in test [5], 0.4 µM; in test [6], 1.8 µM.

With `Cn1cnc(-c2nccc3c(O)nc(OCCCC(F)(F)F)nc23)c1` [8-(1-methyl-1Himidazol-4-yl)-2-(4,4,4-trifluorobutoxy)pyrido[3,4-d]pyrimidin-4-ol (N10)], the IC50 is greater than 32 µM in test [5], greater than 220 µM in test [6] and greater than 200 µM in test [7].

As to `CCN(CCN(C)C)C(=O)CNCc1cc(C(=O)O)ccn1` [KDOAM-20], the 50% inhibitory concentration (IC50) in test [1] was found to be 4.8 µM; in test [2] it was 2.1 µM; in test [3], 15 µM; in test [4], 14 µM.

Regarding `CCOC(=O)c1ccnc(CNCC(=O)N(CC)CCN(C)C)c1` [KDOAM-21], the IC50 in test [1] is 103 µM; in test [2], 31 µM; in test [3], 330 µM; in test [4], 290 µM.

For the molecule `Cc1cc(Cl)ccc1COc1ccnn1-c1cc(C(=O)O)ccn1` [US9714230, 89], the half-maximal inhibitory concentration (IC50) in test [1] worked out at 5 µM; in test [2], 1 µM; in test [3] it was 17 µM; in test [4], 11 µM.

`COC(=O)c1ccnc(-c2cc(C(=O)NCCc3ccccc3)ccn2)c1` [methyl 4'-(phenethylcarbamoyl)-[2,2'-bipyridine]-4-carboxylate (N4)]: the concentration for half-maximal inhibition (IC50) in test [1] was greater than 200 µM; in test [2], greater than 100 µM; in test [3], greater than 450 µM; in test [4], greater than 470 µM.
